The target of the experiment is T1, PRKACA (PKA) (Homo sapiens, UniProt P17612).
T1 construct: purchased Thermo Fisher Scientific (Life Technologies) SelectScreen
Description: SelectScreen Z'LYTE. The class given is biochemical. The method, boiled down: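 NU5455 was profiled across the SelectScreen Broad panel of kinase activity and binding assays. Z'LYTE reactions such as CSF1R ran at apparent Km ATP, while the Adapta CAMK1 assay used ATP listed as 10. Values are given as percent.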

Molecules are shown by their SMILES.

By inhibition is commonly meant the percentage by which the read-out fell short of the control. For `CN(C(=O)CN1CCOCC1)c1ccc2sc3c(-c4cccc5c(=O)cc(N6CC7CCC(C6)O7)oc45)cccc3c2c1` [NU5455], the inhibition at 1 µM stood at 14%.

Values taken from PMC6934184, “Selective DNA-PKcs inhibition extends the therapeutic index of localized radiotherapy and chemotherapy” (The Journal of Clinical Investigation, 2019).
